According to ChEMBL document CHEMBL1140967, “Regiospecific microwave-assisted synthesis and cytotoxic activity against human breast cancer cells of (RS)-6-substituted-7- or 9-(2,3-dihydro-5H-1,4-benzodioxepin-3-yl)-7H- or -9H-purines” (Eur J Med Chem, 2008):

Tests used:
MCF7 [1] = test: Antiproliferative activity against human MCF7 cells after 6 days by SRB assay; conditions: MCF7, 144 h
MCF7 [2] = test: Cell cycle arrest in human MCF7 cells assessed as accumulation at G0/G1 phase at cytotoxic IC50 after 48 hrs by FACS assay; format: functional
MCF7 [3] = test: Cell cycle arrest in human MCF7 cells assessed as accumulation at S phase at cytotoxic IC50 after 48 hrs by FACS assay; format: functional
MCF7 [4] = test: Cell cycle arrest in human MCF7 cells assessed as accumulation at G2/M phase at cytotoxic IC50 after 48 hrs by FACS assay; format: functional
MCF7 [5] = test: Induction of apoptosis in human MCF7 cells at cytotoxic IC50 after 48 hrs by Annexin-V based assay; format: functional

SMILES	IC50 (MCF7 [1]) [µM]	further results
CSc1ncnc2[nH]cnc12	23.6	–
c1ccc(Sc2ncnc3[nH]cnc23)cc1	31	–
Fc1ccc(Sc2ncnc3[nH]cnc23)cc1	31.6	–
Nc1nc(OCC2CCCCC2)c2nc[nH]c2n1	24.2	–
c1ccc(Oc2ncnc3[nH]cnc23)cc1	28.4	–
O=c1ccn(C2COc3ccccc3CO2)c(=O)[nH]1 (configuration not stated)	5	–
c1nc(OCC2CCCCC2)c2nc[nH]c2n1	32.3	–
C=CCOc1ncnc2[nH]cnc12	44.7	–
Clc1ccc(Sc2ncnc3[nH]cnc23)c(Cl)c1	21.4	–
c1ccc(Oc2ncnc3c2ncn3C2COc3ccccc3CO2)cc1 (racemic)	24.7	–
Clc1ccc(Sc2ncnc3c2ncn3C2COc3ccccc3CO2)c(Cl)c1 (racemic)	12	–
c1ccc2c(c1)COC(n1cnc3c(OCC4CCCCC4)ncnc31)CO2 (racemic)	11.6	–
Fc1ccc(Sc2ncnc3ncn(C4COc5ccccc5CO4)c23)cc1 (racemic)	14.1	–
Fc1ccc(Sc2ncnc3c2ncn3C2COc3ccccc3CO2)cc1 (racemic)	11.2	–
c1ccc2c(c1)COC(n1cnc3ncnc(OCC4CCCCC4)c31)CO2 (racemic)	13.4	–
c1ccc(Oc2ncnc3ncn(C4COc5ccccc5CO4)c23)cc1 (racemic)	21.1	–
c1ccc(Sc2ncnc3ncn(C4COc5ccccc5CO4)c23)cc1 (racemic)	15.6	–
Clc1ccc(Sc2ncnc3ncn(C4COc5ccccc5CO4)c23)c(Cl)c1 (racemic)	8.4	Activity (MCF7 [2]): 58.1%; Activity (MCF7 [3]): 22.73%; Activity (MCF7 [4]): 19.16%; Activity (MCF7 [5]): 65.28%
C=CCOc1ncnc2c1ncn2C1COc2ccccc2CO1 (racemic)	5.04	Activity (MCF7 [2]): 55.63%; Activity (MCF7 [3]): 37%; Activity (MCF7 [4]): 7.37%; Activity (MCF7 [5]): 44.47%
CSc1ncnc2c1ncn2C1COc2ccccc2CO1 (racemic)	24	–
c1ccc(Sc2ncnc3c2ncn3C2COc3ccccc3CO2)cc1 (racemic)	7.12	Activity (MCF7 [2]): 59.1%; Activity (MCF7 [3]): 26.82%; Activity (MCF7 [4]): 11.08%; Activity (MCF7 [5]): 73.37%
CSc1ncnc2ncn(C3COc4ccccc4CO3)c12 (racemic)	31.8	–
C=CCOc1ncnc2ncn(C3COc4ccccc4CO3)c12 (racemic)	20.9	–
O=c1[nH]cc(F)c(=O)[nH]1 [FLUOROURACIL]	4.32	–
CC(=O)O[C@H]1C(=O)[C@@]2(C)[C@H]([C@H](OC(=O)c3ccccc3)[C@]3(O)C[C@H](OC(=O)[C@H](O)[C@@H](NC(=O)c4ccccc4)c4ccccc4)C(C)=C1C3(C)C)[C@]1(OC(C)=O)CO[C@@H]1C[C@@H]2O [PACLITAXEL]	–	Activity (MCF7 [5]): 43%
